These results are taken from patent US20050148838A1, “Pharmaceutical discovery and development” (priority 2002, published 2005).

Data set [1] in a line: Coulometric EC-MS (voltammetric mass spectrometry), Phase I type EC oxidation. The class given is physicochemical. The settings on record: per product ion. The text has this: Referring to FIG. 1A, a Model 1100 LC/MSD single quadrupole mass spectrometer 10 (Agilent Technologies, Palo Alto, Calif., USA) was used in combination with a Coulochem® III ECD 12 and Model 5021 coulometric cell 14 (ESA Inc., Chelmsford, Mass., USA).
Compounds are characterized via automated sequences, in which EC potential is changed from, e.g., 0-1200 mV(vs. Pd) in increments of, e.g., 200 mV. EC current and MS ion abundance at specific mass-to-charge ratios (m/z) is monitored. In accordance with the present invention, EC (e.g., coulometric, or amperometric) and reaction product profiles for various drug candidates can be obtained reproducibly. Peak area for parent compounds is inversely proportional to EC response with concomitant formation of reaction products.

Data set [2] is described as follows: EC-MS oxidation with co-injected glutathione (Phase II type conjugation of EC-generated electrophiles).
Procedure: Compounds (200 ng each), diluted in mobile phase (50% aqueous methanol with added electrolyte), were introduced into the system by FIA with a solvent flow rate of 0.1 ml /minute. Compounds undergoing rapid electrolysis and products were monitored by MS. Each compound was analyzed at several oxidative potentials (e.g., −100, 300, 700, 1100 mV vs. Pd reference). Substrate-product pairs were used to aid in the study of Phase I type product formation as a function of potential (i.e. voltammetric mass spectrometry, VMS).
For Phase I type EC transformation studies, changes in EC current, and the corresponding consumption (oxidation) of substrate and associated product formation were monitored as a function of electrode potential. In these studies a solvent flow rate of 0.1 ml/min. was used with ESI and a single analysis was complete in less than 2.5 min. To study both Phase I oxidative reactions and potential-dependent covalent binding (Phase II) total time for characterization of each compound required approximately 15 min. (6 analyses/compound).
To further examine these products, nucleophilic compounds were added to each solution and co-injected with test compounds to investigate the capability of EC-MS to model metabolic activation and resultant reactions with nucleophiles.

Each structure is given as a SMILES string.

`N[C@@H](CCS)C(=O)O` [Homocysteine]: the “E½ (½ wave potential for product formation)” value in data set [1] is listed as 1100 mV vs. Pd.

Regarding `COc1cc2c(cc1O)CC[C@@H]1[C@@H]2CC[C@]2(C)[C@@H](O)CC[C@@H]12` [2-Methoxyestradiol], the “E½ (½ wave potential for product formation)” value in data set [1] is on record as 450 mV vs. Pd.

Consider `CSCC[C@H](N)C(=O)O` [Methionine], for which the “E½ (½ wave potential for product formation)” value in data set [1] is on record as 1100 mV vs. Pd.

On to `C[C@]12CC[C@@H]3c4cc(O)c(O)cc4CC[C@H]3[C@@H]1CC[C@@H]2O` [2-Hydroxyestradiol], for which the “E½ (½ wave potential for product formation)” value in data set [1] amounted to 250 mV vs. Pd.

On to `COc1c(O)ccc2c1CC[C@@H]1[C@@H]2CC[C@]2(C)[C@@H](O)CC[C@@H]12` [4-Methoxyestradiol], for which the “E½ (½ wave potential for product formation)” value in data set [1] amounted to 450 mV vs. Pd.

As for `CCCCN1C[C@H](O)[C@@H](O)[C@H](O)[C@H]1CO` [N-butyldeoxynojirimycin], the “E½ (½ wave potential for product formation)” value in data set [1] was found to be 1000 mV vs. Pd.

As to `CC(C)NCC(O)COc1cccc2ccccc12` (stereo not shown) [Propranolol], the “E½ (½ wave potential for product formation)” value in data set [1] is reported as 1000 mV vs. Pd.

For the compound `Cc1cc(C(C)(C)C)c(O)c(C(C)(C)C)c1` [BHT], the “glutathionyl addition products formed on EC oxidation” value in data set [2] is on record as “mono-glutathionyl addition product”.

For the compound `C[C@]12CC[C@@H]3c4ccc(O)c(O)c4CC[C@H]3[C@@H]1CC[C@@H]2O` [4-Hydroxyestradiol], the “E½ (½ wave potential for product formation)” value in data set [1] is listed as 250 mV vs. Pd.

For the compound `CN(C)CCCN1c2ccccc2CCc2ccccc21` [Imipramine], the “E½ (½ wave potential for product formation)” value in data set [1] was determined as 650 mV vs. Pd.
